This is an account of results in US7279491B2 (Janssen Pharmaceutica N.V., priority 2002, dated 2007).

T1 sequence (Q9Y5N1 whole entry): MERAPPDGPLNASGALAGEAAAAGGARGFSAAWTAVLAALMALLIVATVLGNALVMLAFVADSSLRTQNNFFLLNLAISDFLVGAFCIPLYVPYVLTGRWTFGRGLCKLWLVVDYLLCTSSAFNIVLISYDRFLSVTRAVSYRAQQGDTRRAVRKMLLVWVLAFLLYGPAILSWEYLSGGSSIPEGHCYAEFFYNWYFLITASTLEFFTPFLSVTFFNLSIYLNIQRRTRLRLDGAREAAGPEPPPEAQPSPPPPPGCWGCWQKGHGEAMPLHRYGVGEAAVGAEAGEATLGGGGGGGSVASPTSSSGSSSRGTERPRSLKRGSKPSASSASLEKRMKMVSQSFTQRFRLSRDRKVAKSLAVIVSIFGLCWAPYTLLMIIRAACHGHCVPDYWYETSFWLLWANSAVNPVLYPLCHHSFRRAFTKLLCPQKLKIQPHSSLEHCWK

The experiment addresses T1, human histamine H3 receptor (Homo sapiens, UniProt Q9Y5N1).
T1 construct: One microgram of supercoiled H3 receptor cDNA was added to the cells and mixed; expressed in transfected cells; membranes
Nature of the experiment: {3H}-N-methylhistamine binding to membranes of histamine H3 receptor-expressing SK-N-MC cells. Conditions: 0.8 nM {3H}-N-methylhistamine, 45 min at 25° C., Ki=(IC50)/(1+({L}/(Kd)), Kd 800 pM). As to the method:
Transfection of Cells with Human Histamine Receptor
A 10 cm tissue culture dish with a confluent monolayer of SK-N-MC cells was split two days prior to transfection. Using sterile technique the media was removed and the cells were detached from the dish by the addition of trypsin. One fifth of the cells were then placed onto a new 10 cm dish. Cells were grown in a 37° C. incubator with 5% CO2 in Minimal Essential Media Eagle with 10% Fetal Bovine Serum. After two days cells were approximately 80% confluent. These were removed from the dish with trypsin and pelleted in a clinical centrifuge. The pellet was then re-suspended in 400 μL complete media and transferred to an electroporation cuvette with a 0.4 cm gap between the electrodes. One microgram of supercoiled H3 receptor cDNA was added to the cells and mixed. The voltage for the electroporation was set at 0.25 kV, the capacitance was set at 960 μF. After electroporation the cells were diluted into 10 mL complete media and plated onto four 10 cm dishes. Because of the variability in the efficiency of electroporation, four different concentrations of cells were plated. The ratios used were; 1:20, 1:10, 1:5, with the remainder of the cells being added to the fourth dish. The cells were allowed to recover for 24 h before adding the selection media (complete media with 600 μg/mL G418). After 10 days dishes were analyzed for surviving colonies of cells. Dishes with well-isolated colonies were used. Cells from individual colonies were isolated and tested. SK-N-MC cells were used because they give efficient coupling for inhibition of adenylate cyclase. The clones that gave the most robust inhibition of adenylate cyclase in response to histamine were used for further study.
{^3H}-N-methylhistamine Binding
Cell pellets from histamine H3 receptor-expressing SK-N-MC cells were homogenized in 20 mM Tris HCl/0.5 mM EDTA. Supernatants from an 800 g spin were collected, recentrifuged at 30,000 g for 30 min. Pellets were re-homogenized in 50 mM Tris/5 mM EDTA (pH 7.4). Membranes were incubated with 0.8 nM {^3H}-N-methylhistamine plus/minus test compounds for 45 min at 25° C. and harvested by rapid filtration over GF/C glass fiber filters (pretreated with 0.3% polyethylenimine) followed by four washes with ice-cold buffer. Filters were dried, added to 4 mL scintillation cocktail and then counted on a liquid scintillation counter. Non-specific binding was defined with 10 μM histamine. The pKi values were calculated based on a Kd of 800 pM and a ligand concentration ({L}) of 800 pM according to the formula: Ki=(IC50)/(1+({L}/(Kd))
On to `c1ccc(N2CCC(CN3CCCC3)CC2)c(CN2CCOCC2)c1` [Example 43, 4-{2-(4-Pyrrolidin-1-ylmethyl-piperidin-1-yl)-benzyl}-morpholine], for which the Ki – broadly, a dissociation constant, usually derived from enzyme kinetics or from competition with a known ligand – is 4800 nM.
With `c1ccc(NCC2CCN(c3ccc(CN4CCCC4)cc3)CC2)nc1` [Example 56, Pyridin-2-yl-{1-(4-pyrrolidin-1-ylmethyl-phenyl)-piperidin-4-ylmethyl}-amine], the inhibition constant (Ki) is 3 nM.
In the case of `c1cc(N2CCC(CN3CCSCC3)CC2)ccc1CN1CCCC1` [Example 29, 4-{1-(4-Pyrrolidin-1-ylmethyl-phenyl)-piperidin-4-ylmethyl}-thiomorpholine], the Ki was 2 nM.
Then `c1cc(CN2CCCCC2)cc(N2CCC(CN3CCCC3)CC2)c1` [Example 35, 1-{3-(4-pyrrolidin-1-ylmethyl-piperidin-1-yl)-benzyl}-piperidine], with 10 nM; and `Cc1cc(CN2CCCCC2)ccc1N1CCC(CN2CCCC2)CC1` [Example 75], with 6 nM.
Regarding `CN(C)Cc1ccc(N2CCC(CN3CCCC3)CC2)c(F)c1` [Example 79, [3-Fluoro-4-(4-pyrrolidin-1-ylmethyl-piperidin-1-yl)-benzyl]-dimethyl-amine], the affinity corresponds to a Ki of 4 nM.
Then `c1cc(N2CCC(CN3CCCCC3)CC2)ccc1CN1CCCCC1` [Example 57, 1-{1-(4-Piperidin-1-ylmethyl-phenyl)-piperidin-4-ylmethyl}-piperidine], with 2.5 nM; and `CCN(CC)CC1CCN(c2ccc(CN3CCCC3)cc2)CC1` [Example 25, Diethyl-{1-(4-pyrrolidin-1-ylmethyl-phenyl)-piperidin-4-ylmethyl}-amine], with 0.8 nM.
Then `Cc1cc(CN2CCN(C(C)C)CC2)ccc1N1CCC(CN2CCCC2)CC1` [Example 73, 1-Isopropyl-4-[3-methyl-4-(4-pyrrolidin-1-ylmethyl-piperidin-1-yl)-benzyl]-piperazine], with 16 nM; and `CN(C1CCCCC1)C1CCN(c2ccc(CN3CCOCC3)cc2)CC1` [Example 47, Cyclohexyl-methyl-{1-(4-morpholin-4-ylmethyl-phenyl)-piperidin-4-yl}-amine], with 5.8 nM; and `c1cc(CN2CCOCC2)cc(N2CCC(CN3CCCC3)CC2)c1` [Example 33, 4-{3-(4-Pyrrolidin-1-ylmethyl-piperidin-1-yl)-benzyl}-morpholine], with 20 nM.
`c1cc(N2CCC(CN3CCCC3)CC2)ccc1CN1CCCCCCCCCCCC1` [Example 36, 1-{4-(4-Pyrrolidin-1-ylmethyl-piperidin-1-yl)-benzyl}-azacyclotridecane] displayed a Ki of 6 nM. Compared with the last compound, the Ki is about 3.3-fold lower.
`c1cc(N2CCC(NC3CCCCC3)CC2)ccc1CN1CCOCC1` [Example 46, Cyclohexyl-{1-(4-morpholin-4-ylmethyl-phenyl)-piperidin-4-yl}-amine] showed an inhibitory constant (Ki) of 28 nM.
For the compound `CN(CCc1ccccc1)CCC1CCN(c2ccc(CN3CCCCC3)cc2)C1` (stereo not shown) [Example 62, Methyl-phenethyl-{2-{1-(4-piperidin-1-ylmethyl-phenyl)-pyrrolidin-3-yl}-ethyl}-amine], the Ki was determined as 1.3 nM. This Ki lies about 22-fold lower than the previous one.
The figure for `c1cc(N2CCC(CN3CCCC3)CC2)ccc1CN1CCCCC1` [Example 45, 1-{4-(4-Pyrrolidin-1-ylmethyl-piperidin-1-yl)-benzyl}-piperidine] is 2 nM.
As to `c1cc(N2CCC(CNC3CCCCC3)CC2)ccc1CN1CCCC1` [Example 23, Cyclohexyl-{1-(4-pyrrolidin-1-ylmethyl-phenyl)-piperidin-4-ylmethyl}-amine], the Ki was determined as 0.9 nM.
The figure for `OC1CCN(Cc2ccc(N3CCC(CN4CCCC4)CC3)cc2)CC1` [Example 38, 1-{4-(4-Pyrrolidin-1-ylmethyl-piperidin-1-yl)-benzyl}-piperidin-4-ol] is 5 nM.
In turn, `c1cc(N2CCC(CCN3CCOCC3)C2)ccc1CN1CCCCC1` (stereo not shown) [Example 60, 4-{2-{1-(4-Piperidin-1-ylmethyl-phenyl)-pyrrolidin-3-yl}-ethyl}-morpholine] returned a Ki of 1.1 nM.
The figure for `Fc1cc(CN2CCCCC2)ccc1N1CCC(CN2CCCC2)CC1` [Example 80, 1-[3-Fluoro-4-(4-pyrrolidin-1-ylmethyl-piperidin-1-yl)-benzyl]-piperidine] is 4 nM; for `c1cc(N2CCC(CN3CCOCC3)CC2)ccc1CN1CCCCC1` [Example 44, 4-{1-(4-Piperidin-1-ylmethyl-phenyl)-piperidin-4-ylmethyl}-morpholine] it is 5 nM.
`OC1CCN(CC2CCN(c3ccc(CN4CCCC4)cc3)CC2)CC1` [Example 28, 1-{1-(4-Pyrrolidin-1-ylmethyl-phenyl)-piperidin-4-ylmethyl}-piperidin-4-ol]: the affinity, expressed as Ki, was 0.8 nM. Compared with the last compound, the Ki is about 6.2-fold lower.
The compound `Fc1ccc(NCc2ccc(N3CCC(CN4CCCC4)CC3)cc2)cc1` [Example 59, (4-Fluoro-phenyl)-{4-(4-pyrrolidin-1-ylmethyl-piperidin-1-yl)-benzyl}-amine] had a Ki of 48 nM. Against the preceding compound, the Ki is about 60-fold higher.
The figure for `c1cc(CN2CCCC2)cc(N2CCC(CN3CCCC3)CC2)c1` [Example 34, 4-Pyrrolidin-1-ylmethyl-1-(3-pyrrolidin-1-ylmethyl-phenyl)-piperidine] is 6 nM; for `c1cc(N2CCC(CN3CCCC3)CC2)ccc1CN1CCOCC1` [Example 41, 4-{4-(4-Pyrrolidin-1-ylmethyl-piperidin-1-yl)-benzyl}-morpholine] it is 12 nM; for `c1cc(N2CCC(CN3CCCCCCCCCCCC3)CC2)ccc1CN1CCCC1` [Example 24, 1-{1-(4-Pyrrolidin-1-ylmethyl-phenyl)-piperidin-4-ylmethyl}-azacyclotridecane] it is 23 nM.
The figure for `FC(F)(F)c1cc(CN2CCC(N3CCCC3)CC2)ccc1N1CCC(CN2CCCC2)CC1` [Example 76, 1-{1-[4-(4-Pyrrolidin-1-yl-piperidin-1-ylmethyl)-2-trifluoromethyl-phenyl]-piperidin-4-ylmethyl}-pyrrolidine] is 9 nM.
`CN(C)CC1CCN(c2ccc(CN3CCCC3)cc2)CC1` [Example 26, Dimethyl-{1-(4-pyrrolidin-1-ylmethyl-phenyl)-piperidin-4-ylmethyl}-amine] gave a Ki of 1.7 nM.
The figure for `c1ccc(NCc2ccc(N3CCC(N4CCCCC4)CC3)cc2)nc1` [Example 54, (4-{1,4′}Bipiperidinyl-1′-yl-benzyl)-pyridin-2-yl-amine] is 8.4 nM.
Then `Fc1cc(CN2CCC(c3ccccc3)CC2)ccc1N1CCC(CN2CCCC2)CC1` [Example 78, 1-{1-[2-Fluoro-4-(4-phenyl-piperidin-1-ylmethyl)-phenyl]-piperidin-4-ylmethyl}-pyrrolidine], with 7 nM.
With `O=[N+]([O-])c1cc(CN2CCOCC2)ccc1N1CCC(CN2CCCC2)CC1` [Example 70, 4-[3-Nitro-4-(4-pyrrolidin-1-ylmethyl-piperidin-1-yl)-benzyl]-morpholine], the Ki was determined as 36 nM.
For the compound `c1cc(N2CCC(N3CCCC3)CC2)ccc1CN1CCOCC1` [Example 51, 4-{4-(4-Pyrrolidin-1-yl-pieridin-1-yl)-benzyl}-morpholine], the affinity corresponds to a Ki of 17 nM. This Ki lies about 2.1-fold lower than the previous one.
The compound `c1cc(N2CCC(CN3CCCCC3)CC2)ccc1CN1CCCC1` [Example 30, 1-{1-(4-Pyrrolidin-1-ylmethyl-phenyl)-piperidin-4-ylmethyl}-piperidine] came in with a Ki of 1 nM.
With `c1cc(N2CCC(N3CCCCC3)CC2)ccc1CN1CCCCC1` [Example 53, 1′-(4-Piperidin-1-ylmethyl-phenyl)-{1,4′}bipiperidinyl], affinity was put at a Ki of 2.7 nM.
On to `CCN(CC)CCC1CCN(c2ccc(CN3CCCCC3)cc2)C1` (stereo not shown) [Example 61, Diethyl-{2-{1-(4-piperidin-1-ylmethyl-phenyl)-pyrrolidin-3-yl}-ethyl}-amine], for which the Ki is 0.8 nM.
In the case of `FC(F)(F)c1cc(N2CCC(CN3CCCC3)CC2)ccc1CN1CCOCCOCCOCCOCC1` [Example 81, 13-[4-(4-pyrrolidin-1-ylmethyl-piperidin-1-yl)-2-trifluoromethyl-benzyl]-1,4,7,10-tetraoxa-13-aza-cyclopentadecane Ditrifluoromethanesulfonate], the Ki was determined as 34 nM. Against the preceding compound, the Ki is about 42-fold higher.
The compound `c1cc(N2CCC(N3CCCCC3)CC2)ccc1CN1CCOCC1` [Example 52, 1′-(4-Morpholin-4-ylmethyl-phenyl)-{1,4′}bipiperidinyl] had a Ki of 5.5 nM. Against the preceding compound, the Ki is about 6.2-fold lower.
Then `FC(F)(F)c1ccc(C2CCN(Cc3ccc(N4CCC(CN5CCCC5)CC4)cc3C(F)(F)F)CC2)cc1` [Example 77, 1-(1-{3-Trifluoromethyl-4-[4-(4-trifluoromethyl-phenyl)-piperidin-1-ylmethyl]-phenyl}-piperidin-4-ylmethyl)-pyrrolidine], with 160 nM.
